Test results taken from article PMC3183052, “Immunoprotectivity of HLA-A2 CTL Peptides Derived from Respiratory Syncytial Virus Fusion Protein in HLA-A2 Transgenic Mouse” (PLoS ONE, 2011).

What was measured:
[1] = test system: pulmonary CD8+ T lymphocytes; test: Number of CD8+ T cells in the lungs by flow cytometry after RSV challenge; assay type: in vivo, mouse; settings: day 4 post RSV infection; flow cytometry of lung homogenate
Description: Whole lungs were perfused with 5 mL 1× PBS before excision. The isolated lung tissues were incubated with 1 µg/mL collagenase for 30 min before homogenizing with the iron mesh. The homogenate was centrifuged at 1,000 rpm for 10 min at 4°C to sediment the pulmonary cells. The cells were washed with 1× PBS and then resuspended in 1× PBS for further analysis by real-time RT-PCR and flow cytometry. For pulmonary IFN-γ detection, 5×10^6/mL cells were cultured with 10 U/mL recombinant IL-2 for 2 days and the supernatants were collected for ELISA.
Figure 5 Induction of pulmonary IFN-γ and CTL activity in peptide immunized transgenic mice challenged with RSV. At day 4 post RSV infection, lung homogenates were prepared and the following were measured. (A) IFN-γ expression by ELISA, and (B) the number of CD8^+ T cells in the lungs by flow cytometry using PE-cy5-labeled anti-CD8 antibody. (C). Enumeration of CTL activity in the lungs of mice immunized with CD8 peptide epitopes and challenged with RSV. […] The cell mixtures were labeled with 7-AAD and analyzed by flow cytometry. Results are expressed as mean percentage of 7-AAD/CFSE positive cells normalized with un-pulsed DCs. […]

[2] = test system: splenocytic CD4+ T cells; test: CFSE proliferation of CD4+ T cells after in vitro peptide restimulation; assay type: cell-based, mouse; settings: mice immunized s.c. twice with 50 µg peptide in IFA; splenocytes restimulated with 10 µg/mL peptide for 8 days
Description: (§1) To screen the immunodominance of epitopic peptide in the induction of RSV-F specific Th1/Th2 expression, HLA-A*0201 transgenic C57BL/6 mice were anesthetized with isoflurane and immunized with 1×10^7 pfu/50 µL of rAd-F0 or rAd-LacZ or 1×10^4 live RSV B1 via the intranasal (i.n.) route. Twenty days later, the mice were given booster immunization i.n. with the same dose. After 10 days of boost, mice were sacrificed and splenocytes were isolated for the cytokine ELISPOT assay. […] Mice body weight was monitored daily.
(§2) The splenocytes were isolated, labeled with 5-(6)-carboxyfluorescein diacetate succinimidyl ester (CFSE) (Sigma-Aldrich) and stimulated in vitro with 10 µg/mL of the synthetic peptides for 4 or 8 days. Proliferation of splenocytic CD4^+ and CD8^+ T cells was analyzed by flow cytometry (BD FACSCalibur) using PE-Cy5-labeled specific antibody against CD4 (eBioscience) or CD8 (eBioscience), respectively. Cell division index (CDI), a ratio of CFSE-diluted CD4^+ or CD8^+ T cells stimulated by peptide to CFSE-diluted unstimulated CD4^+ or CD8^+ T cells, was calculated as shown below; [drawing 1] […]
(§3) Figure 2 Epitope-specific CD4^+ and CD8^+ T-cell activation in peptide-immunized HLA-A*0201 transgenic mice. […] Proliferation of CD4^+ (A) or CD8^+ (B) lymphocytes in response to the different CD8 epitopes was analyzed by flow cytometry using anti-CD4 or CD8 antibodies conjugated with PE-Cy5. […]

[3] = test system: splenocytic CD8+ T cells; test: CFSE proliferation of CD8+ T cells after in vitro peptide restimulation; assay type: cell-based, mouse; settings: mice immunized s.c. twice with 50 µg peptide in IFA; splenocytes restimulated with 10 µg/mL peptide for 8 days
Description: as §1, §2, §3

[4] = test system: CD4+CD25+ T cells; test: Infiltration of CD4+CD25+ T cells in the lungs after RSV challenge; assay type: in vivo, mouse; settings: mice pre-immunized with peptide and challenged with live RSV; unshown results

Sequence: YMLTNSELL [peptide 14, HLA-A*0201-restricted 9-mer synthetic peptide from F protein of RSV-B1 strain]
- pulmonary CD8+ T cell numbers vs vehicle immunization [1]: lower
- proliferation of CD4+ T cells (cell division index) [2]: insignificant proliferation
- proliferation of CD8+ T cells (cell division index) [3]: ~3 fold
- infiltration of CD4+CD25+ T cells in the lungs [4]: increased infiltration
